One series has as its system AR mRNA. Briefly: qPCR by SYBR Green for AR mRNA in MCF7 cells. To be noted: 5 hours.
A further series concerns 10-mer complementary DNA. Description: Tm between PNA derivatives and 10-mer complementary DNA (N- or C-terminal). To be noted: uncorrected. It is filed as binding. In short, it runs like this:
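Tm read by UV at 260 nm for duplexes formed by annealing (90 °C for a minute, slow cooling to ambient) of equimolar 4 μM PNA and complementary 10-mer DNA targeting N- or C-terminal, in 10 mM sodium phosphate, 100 mM NaCl, pH 7.16.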

The subject of another series is human AR pre-mRNA. Briefly: AR nested PCR for exon skipping in MCF7 cells. The format is cell-based. The conditions noted are these: 3 hours. As to the method:
“AR-ASO 1” was evaluated by AR nested PCR for its ability to induce the skipping of exon 5 of the human AR mRNA in MCF7 cells as follows. [Cell Culture & ASO Treatment] MCF7 cells (Cat. Number: HTB-22, ATCC) were maintained in EMEM medium supplemented with 10% FBS, 1% streptomycin/penicillin, and 0.01 mg/mL bovine insulin under 5% CO2 atmosphere at 37° C. Cells grown in 60 mm culture dish were treated with “AR-ASO 1” for 3 hours at 0 (negative control), 3, 30, 300 or 3,000 aM (i.e., 3 fM). [RNA Extraction] Total RNA was extracted using “Universal RNA Extraction Kit” (Cat. No. 9767, Takara) according to the manufacturer's instructions [cDNA Synthesis by One Step RT-PCR] […] NO: 55); and AR-exon 9_reverse: (5'→3') […] [Nested PCR Amplification] Throughout the amplification process, was used a unique amplification technique (touch up as increasing annealing temperature per cycle) that worked efficiently and specifically over a temperature range, rather than at one specific annealing temperature (i.e., conventional PCR method). […] NO: 57); and AR-exon 7n_reverse: (5'→3') […] […] The bands of target size were collected and analyzed by Sanger Sequencing. […] “AR-ASO 1” was evaluated for its exon skipping ability in MCF7 cells grossly showing the morphology of cumulus shape as described in “AR Example 1”, unless noted otherwise. […]

The next series relates to AR protein. Briefly: AR western blot in MCF7 cells. It is filed as cell-based, human. The conditions noted are these: 10 zM to 30 aM, 48 hours. As to the method: 4 culture dishes for the negative control. 48 hours later, cells were washed 2× with cold PBS, and then subjected to lysis with 200 μL 1× cell lysis buffer (Cat. No. 9803, Cell Signaling Tech) supplemented with 1× protease inhibitors (Cat. No. P8340, Sigma). The lysates were collected in 1.5 mL e-tube. 200 μL of each lysate was mixed with 100 μL 3× sample buffer, and boiled for 5 min. 20 μL of each lysate (4 negative controls and 8 ASO treatment samples) was subjected to electrophoretic separation on a 8% SDS-PAGE gel, and transferred onto a PVDF membrane. The membrane was probed with an anti-AR antibody (Cat. Number 5153, Cell Signaling Tech) and an anti-3-actin antibody (Cat. Number sc4778, Santa Cruz).

Series [1] concerns sodium current in rat L5 DRG neuronal cells. Briefly: Manual patch clamp sodium current in rat L5 DRG neuronal cells. It is filed as cell-based. To be noted: rat L5 DRG neuronal cells (L5/L6 ligation), small size, 100 zM, 4 hours. As for the experimental part:
“SCN-ASO 30” was evaluated for its ability to inhibit the sodium current in rat L5 DRG neuronal cells stimulated with L5/L6 ligation as provided below.
[Preparation of DRG Neuronal Cells] Male SD rats (6 weeks old) were subjected to tight “L5/L6 ligation”. 7 days later, rats were anesthetized with zoletil/rompun for the extraction of L5 DRG of the ligated side. […]

A further series has as its system Nav1.7 protein. Description: Nav1.7 western blot in rat L5 DRG neuronal cells. It is filed as cell-based. To be noted: rat DRG neuronal cells (L5/L6 ligation). As for the experimental part:
“SCN-ASO 30” was evaluated for its ability to inhibit the expression of Nav1.7 protein in rat DRG neuronal cells as described below.
[Preparation of DRG Neuronal Cells] Male SD rats (7 weeks old) were subjected to tight “L5/L6 ligation”. 7 days later, 4 rats were anesthetized with zoletil/rompun to sample the L5 DRG of the ligated side. The DRGs were pooled and processed to prepare DRG neuronal cells as described in “SCN9A Example 12”.
[ASO Treatment] DRG neuronal cells were treated with “SCN-ASO 30” at 0 (negative control), 10, 100 or 1,000 zM for 24 hours, and then subjected to lysis for western blot against a Nav1.7 antibody (Cat. No. ab85015, Abcam) probing the C-terminal of the Nav1.7 protein. β-actin was probed for reference.

A further series concerns full-length SCN9A mRNA. Briefly: SCN9A qPCR by cDNA synthesis with random hexamers in rat L5 DRG cells. The format is cell-based. To be noted: 24 hours. As to the method: “SCN-ASO 30” was evaluated by SCN9A qPCR for its ability to inhibit the expression of the SCN9A mRNA in rat L5 DRG cells. Total RNA was prepared as described in “SCN9A Example 15”, and subjected to cDNA synthesis using random hexamers.
The cDNA solutions were also subjected to qPCR amplification for the GAPDH mRNA. The Ct values of the SCN9A mRNA were normalized against the Ct values of GAPDH mRNA.

{Fethoc} = N-terminal Fethoc cap; [C(1O2)] = modified PNA monomer acting as cytosine, C(pOq) type, 1O2; [A(5)] = modified PNA monomer acting as adenine, A(p) type, p=5; [G(5)] = modified PNA monomer acting as guanine, G(p) type, p=5; {NH2} = C-terminal amide

Here are results for two substances from patent US12624068B2, “Exon skipping by peptide nucleic acid derivatives” (OliPass Corporation, priority 2016, dated 2026).

Description for AR mRNA: [ASO Treatment and RNA Extraction] […] (2 culture dishes per concentration) 5 hours later, total RNA was extracted using “MiniBEST Universal RNA Extraction Kit” according to the manufacturer's instructions (Cat. Number 9767, Takara).
[cDNA Synthesis with OligodT]
The PCR reactions were probed by SYBR Green (Takara, Japan).

As for “Fethoc-C(1O2)TT-A(5)CC-A(5)GG-C(1O2)AA(5)-G-NH2 (antisense CTTACCAGGCAAG; all peptide nucleic acid (PNA), [C(1O2)] at 1, 10, [A(5)] at 4, 7, 12, 5' {Fethoc}, 3' {NH2}; peptide nucleic acid backbone) [AR-ASO 1]”, the “AR exon levels (SYBR Green), rebound” value in the series on AR mRNA (1 aM (1,000 zM)) is “rebounded close toward the negative control levels”. Besides, in the series on AR mRNA (100 zM), the “decrease of AR exon 4-6 levels (SYBR Green)” value is reported as 40-50%. Besides, in the series with 10-mer complementary DNA, the “Tm Value, 10-mer DNA against C-Terminal” value amounted to 81.3 °C and the “Tm Value, 10-mer DNA against N-Terminal” value came to 86.1 °C. The “skipping of AR exon 5 by nested PCR” value in the series on human AR pre-mRNA (MCF7 cells of cumulus shape morphology, 30, 100 or 1,000 aM) was “distinctively predominant”. Moreover, the “AR exon skipping by nested PCR” value in the series with human AR pre-mRNA (MCF7 cells, 3, 30, 300 or 3,000 aM) was “induce the skipping of exon 5, exons 4-5, and exons 4-6”. The “AR band (120K size) intensity by western blot” value with AR protein is on record as “weaker than the intensity of their neighboring lysates”.
Consider “Fethoc-AA(5)G-TG(5)T-A(5)CC(1O2)-TA(5)A-A(5)G-NH2 (AAGTGTACCTAAAG; all peptide nucleic acid (PNA), [A(5)] at 2, 7, 11, 13, [G(5)] at 5, [C(1O2)] at 9, 5' {Fethoc}, 3' {NH2}; peptide nucleic acid written N to C) [SCN-ASO 30]”, for which the “decrease of sodium current (manual patch clamp, normalized against cell size)” value in series [1] was ~90%. Besides, the “full-length Nav1.7 protein band at 220-240K” value in the series with Nav1.7 protein (10 zM, 24 hours) was “detected”. Also, the “Nav1.7 expression by western blot” value in the series with Nav1.7 protein (100 and 1,000 zM, 24 hour) is “markedly inhibited”. Further, in the series on 10-mer complementary DNA, the “Tm Value, 10-mer DNA against C-Terminal” value was determined as 74.0 °C and the “Tm Value, 10-mer DNA against N-Terminal” value is 79.0 °C. In addition, the “decrease of full-length SCN9A mRNA expression level (random hexamers, normalized against GAPDH)” value in the series with full-length SCN9A mRNA was 45-75%.
